Usually IC50 stands for the midpoint of a concentration-inhibition curve.

The record followed here is patent publication US10428080B2, “TBK/IKK inhibitor compounds and uses thereof” (Merck Patent GmbH, priority 2015, dated 2019).

Structures can show the parent of a compound that is named as a salt.

One assay addresses T1, TBK1 (Homo sapiens, UniProt Q9UHD2).
T1 sequence (Q9UHD2 1-729): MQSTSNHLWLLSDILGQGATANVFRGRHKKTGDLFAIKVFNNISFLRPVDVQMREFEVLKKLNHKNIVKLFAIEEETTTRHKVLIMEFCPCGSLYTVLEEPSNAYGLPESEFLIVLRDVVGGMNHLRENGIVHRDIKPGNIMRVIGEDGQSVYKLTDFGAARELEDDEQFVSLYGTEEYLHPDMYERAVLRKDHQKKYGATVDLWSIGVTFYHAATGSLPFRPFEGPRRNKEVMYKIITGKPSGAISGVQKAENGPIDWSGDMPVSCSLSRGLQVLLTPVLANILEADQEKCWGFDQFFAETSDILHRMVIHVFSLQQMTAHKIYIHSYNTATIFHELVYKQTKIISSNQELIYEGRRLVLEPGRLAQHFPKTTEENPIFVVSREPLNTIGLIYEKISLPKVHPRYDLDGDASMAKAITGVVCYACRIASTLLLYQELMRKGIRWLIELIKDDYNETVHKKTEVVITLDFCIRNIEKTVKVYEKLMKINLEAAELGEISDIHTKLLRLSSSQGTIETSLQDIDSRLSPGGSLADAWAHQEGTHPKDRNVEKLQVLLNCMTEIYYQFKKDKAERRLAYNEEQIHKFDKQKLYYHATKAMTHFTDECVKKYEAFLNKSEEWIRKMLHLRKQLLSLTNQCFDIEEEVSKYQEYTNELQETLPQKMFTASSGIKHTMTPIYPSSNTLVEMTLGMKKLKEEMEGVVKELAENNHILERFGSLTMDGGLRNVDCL
Put plainly: TBK Biochemical Assay. The settings on record: read-out: TBK1 IC50. The method in brief: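 TBK1 enzyme and substrate incubated with compounds (10-point 1:4 dilution, top 30 uM final, 1% DMSO) for 90 min at 25° C, then stopped. Substrate/product peaks read by microfluidic mobility-shift (Caliper LabChip); 10 uM staurosporine as full-inhibition control.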

Another assay has as its target T2, IKKε (Homo sapiens, UniProt Q14164).
T2 sequence (Q14164 1-716): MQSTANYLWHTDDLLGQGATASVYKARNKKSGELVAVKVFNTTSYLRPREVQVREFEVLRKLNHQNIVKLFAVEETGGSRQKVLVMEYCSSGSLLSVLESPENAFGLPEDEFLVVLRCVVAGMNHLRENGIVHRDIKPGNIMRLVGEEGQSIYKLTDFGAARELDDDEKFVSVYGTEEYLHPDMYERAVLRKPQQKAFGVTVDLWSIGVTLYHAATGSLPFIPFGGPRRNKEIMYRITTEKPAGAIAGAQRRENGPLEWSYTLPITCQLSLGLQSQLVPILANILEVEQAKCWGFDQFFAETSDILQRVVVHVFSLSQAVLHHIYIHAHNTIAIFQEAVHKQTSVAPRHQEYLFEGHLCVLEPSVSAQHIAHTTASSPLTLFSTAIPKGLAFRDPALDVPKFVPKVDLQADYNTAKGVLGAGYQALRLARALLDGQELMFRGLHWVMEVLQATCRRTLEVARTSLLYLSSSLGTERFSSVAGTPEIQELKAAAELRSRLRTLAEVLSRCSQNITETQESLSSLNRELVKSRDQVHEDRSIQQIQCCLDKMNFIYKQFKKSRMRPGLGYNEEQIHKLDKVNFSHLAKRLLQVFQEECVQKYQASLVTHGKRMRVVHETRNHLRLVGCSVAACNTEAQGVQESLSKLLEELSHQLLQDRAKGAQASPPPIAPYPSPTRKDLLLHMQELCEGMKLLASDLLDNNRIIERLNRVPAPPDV
Description: IKKe Biochemical Assay. The conditions noted are these: read-out: IKKε IC50. The method in brief: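 Recombinant IKKε and substrate were incubated with compound (10-point 1:4 series, top 30 uM final, 1% DMSO) for 90 min at 25° C, then stopped. Substrate-to-product conversion was read by LabChip microfluidic mobility shift; 10 uM staurosporine served as full-inhibition wells.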

In the case of `CN(C)C(=O)c1cnc(-c2cc3nccc(-c4ccc(NC5CCOCC5)c(C#N)c4)c3o2)c(F)c1` [Compound 249, 6-(7-(3-cyano-4-(tetrahydro-2H-pyran-4-ylamino)phenyl)furo[3,2-b]pyridin-2-yl)-5-fluoro-N,N-dimethylnicotinamide], the IC50 at TBK1 and at IKKε was 100 to 1000 nM each time.

In the case of `CN(C)C(=O)c1ccc(-c2cc3nccc(-c4ccc(OC5CCOCC5)c(C#N)c4)c3o2)c(C(F)(F)F)c1` [Compound 240, 4-(7-(3-cyano-4-(tetrahydro-2H-pyran-4-yloxy)phenyl)furo[3,2-b]pyridin-2-yl)-N,N-dimethyl-3-(trifluoromethyl)benzamide], the IC50 at TBK1 and at IKKε was 100 to 1000 nM each time.

For `CN(C)C(=O)c1ccc(-c2cc3nccc(-c4ccc(NC5CC(C)(C)OC(C)(C)C5)c(C#N)c4)c3o2)cc1` [Compound 218, 4-(7-(3-cyano-4-(2,2,6,6-tetramethyl-tetrahydro-2H-pyran-4-ylamino)phenyl)furo[3,2-b]pyridin-2-yl)-N,N-dimethylbenzamide], the 50% inhibitory concentration (IC50) on TBK1 and on IKKε was 1000 to 5000 nM throughout.

Consider `COc1cc(C(=O)N(C)C)ccc1-c1cc2nccc(-c3ccc(OC4CCN(C(C)=O)C4)c(C#N)c3)c2o1` (stereo not shown) [Compound 144, 4-{7-[4-(1-Acetyl-pyrrolidin-3-yloxy)-3-cyano-phenyl]-furo[3,2-b]pyridin-2-yl}-3-methoxy-N,N-dimethyl-benzamide], for which the IC50 on TBK1 and on IKKε was below 100 nM each time.

Regarding `COc1cc(C(=O)N2CC[C@@H](O)C2)ccc1-c1cc2nccc(-c3ccc(NC4CCOCC4)c(C#N)c3)c2o1` [Compound 95, 5-{2-[4-((R)-3-Hydroxy-pyrrolidine-1-carbonyl)-2-methoxy-phenyl]-furo[3,2-b]pyridin-7-yl}-2-(tetrahydro-pyran-4-ylamino)-benzonitrile], the IC50 at TBK1 and on IKKε was below 100 nM throughout.

For the molecule `CC1CC(Nc2ccc(-c3ccnc4cc(-c5ccc(C(=O)N(C)C)cc5)oc34)cc2C#N)CC(C)O1` (stereo not shown) [Compound 215, 4-(7-(3-cyano-4-(2,6-dimethyl-tetrahydro-2H-pyran-4-ylamino)phenyl)furo[3,2-b]pyridin-2-yl)-N,N-dimethylbenzamide hydrochloride], the IC50 at TBK1 lay in the range of 1000 to 5000 nM; on IKKε it was 100 to 1000 nM.

Consider `COc1cc(C(=O)N(C)CCO)cnc1-c1cc2ncc(F)c(-c3ccc(OC4CCOCC4)c(C#N)n3)c2o1` [Compound 354, 6-[7-[6-cyano-5-(oxan-4-yloxy)pyridin-2-yl]-6-fluorofuro[3,2-b]pyridin-2-yl]-N-(2-hydroxyethyl)-5-methoxy-N-methylpyridine-3-carboxamide hydrochloride], for which the values for the IC50 on TBK1 and on IKKε were 100 to 1000 nM and 1000 to 5000 nM, respectively.

As to `CN(C)C(=O)c1ccc(-c2cc3nccc(-c4cc(F)c(OC5CCOCC5)c(C#N)c4)c3o2)nc1` [Compound 245, 6-(7-(3-cyano-5-fluoro-4-(tetrahydro-2H-pyran-4-yloxy)phenyl)furo[3,2-b]pyridin-2-yl)-N,N-dimethylnicotinamide hydrochloride], the IC50 at TBK1 and at IKKε was 100 to 1000 nM in each case.

For the molecule `N#Cc1cc(-c2ccnc3cc(-c4ccc(C(=O)O)cc4)oc23)ccc1Oc1ccncc1` [Compound 192, 4-{7-[3-Cyano-4-(pyridin-4-yloxy)-phenyl]-furo[3,2-b]pyridin-2-yl}-benzoic acid], the IC50 on TBK1 and on IKKε was above 5000 nM each time.

With `COc1cc(C(=O)N(C)C)ccc1-c1cc2nccc(-c3ccc(NC4CCCOC4)c(C#N)c3)c2o1` (stereo not shown) [Compound 164], the IC50 on TBK1 and on IKKε was 100 to 1000 nM in each case.

As for `CN(C)C(=O)c1ccc(-c2cc3nccc(-c4ccc(NC5CCOCC5)c(C#N)c4)c3o2)cc1` [Compound 194, 4-(7-(3-cyano-4-(tetrahydro-2H-pyran-4-ylamino)phenyl)furo[3,2-b]pyridin-2-yl)-N,N-dimethylbenzamide hydrochloride], the IC50 on TBK1 and on IKKε was 100 to 1000 nM in each case.

Take `COc1cc(C(=O)N2CCC3(CCC3)C2)ccc1-c1cc2nccc(-c3ccc(OC4CCOCC4)c(C#N)c3)c2o1` [Compound 114, 5-{2-[4-(6-Aza-spiro[3.4]octane-6-carbonyl)-2-methoxy-phenyl]-furo[3,2-b]pyridin-7-yl}-2-(tetrahydro-pyran-4-yloxy)-benzonitrile]: the IC50 on TBK1 and at IKKε was below 100 nM throughout.

In the case of `COc1cc(C(=O)NC2CCOCC2F)ccc1-c1cc2nccc(-c3ccc(NC4CCOCC4)c(C#N)c3)c2o1` (stereo not shown) [Compound 132, 4-{7-[3-Cyano-4-(tetrahydro-pyran-4-ylamino)-phenyl]-furo[3,2-b]pyridin-2-yl}-N-(3-fluoro-tetrahydro-pyran-4-yl)-3-methoxy-benzamide], the IC50 on TBK1 and on IKKε was below 100 nM each time.

Take `COc1cc(C(=O)NC2CCOCC2F)ccc1-c1cc2nccc(-c3ccc(OC4CCOCC4)c(C#N)c3)c2o1` (stereo not shown) [Compound 102, 4-{7-[3-Cyano-4-(tetrahydro-pyran-4-yloxy)-phenyl]-furo[3,2-b]pyridin-2-yl}-N-(3-fluoro-tetrahydro-pyran-4-yl)-3-methoxy-benzamide]: the IC50 on TBK1 and at IKKε was below 100 nM in each case.

In the case of `CN(C)C(=O)c1ccc(-c2cc3nccc(-c4ccc(Oc5cccnc5)c(C#N)c4)c3o2)cc1` [Compound 181, 4-{7-[3-Cyano-4-(pyridin-3-yloxy)-phenyl]-furo[3,2-b]pyridin-2-yl}-N,N-dimethyl-benzamide], the IC50 at TBK1 and at IKKε was 100 to 1000 nM throughout.

As to `COc1cc(C(=O)N(C)C)cnc1-c1cc2ncc(OC)c(-c3ccc(NC4CCOCC4)c(C#N)c3)c2o1` [Compound 340, 6-(7-[3-cyano-4-[(oxan-4-yl)amino]phenyl]-6-methoxyfuro[3,2-b]pyridin-2-yl)-5-methoxy-N,N-dimethylpyridine-3-carboxamide], the figures for the IC50 at TBK1 and on IKKε were 100 to 1000 nM and 1000 to 5000 nM, respectively.

In the case of `CN(C)C(=O)c1ccc(-c2cc3nccc(-c4ccc(OC5CC(C)(C)NC(C)(C)C5)c(C#N)c4)c3o2)cc1` [Compound 216, 4-(7-(3-cyano-4-(2,2,6,6-tetramethylpiperidin-4-yloxy)phenyl)furo[3,2-b]pyridin-2-yl)-N,N-dimethylbenzamide], the IC50 on TBK1 and on IKKε was above 5000 nM throughout.

For the molecule `COc1cc(C(=O)N(C)C)ncc1-c1cc2nccc(-c3cc(C#N)c(OC4CCOCC4)cn3)c2o1` [Compound 386, 5-[7-[4-cyano-5-(oxan-4-yloxy)pyridin-2-yl]furo[3,2-b]pyridin-2-yl]-4-methoxy-N,N-dimethylpyridine-2-carboxamide], the half-inhibitory concentration (IC50) on TBK1 and on IKKε was 100 to 1000 nM in each case.

As to `N#Cc1cc(-c2ccnc3cc(-c4ccc(C(=O)O)cc4)oc23)ccc1Oc1cccc(F)c1` [Compound 188, 4-{7-[3-Cyano-4-(3-fluoro-phenoxy)-phenyl]-furo[3,2-b]pyridin-2-yl}-benzoic acid], the IC50 on TBK1 and at IKKε was 1000 to 5000 nM throughout.

Consider `COc1cc(C(=O)N(C)C)ccc1-c1cc2nccc(-c3cc(F)c(NC4CCOCC4)c(C#N)c3)c2o1` [Compound 236, 4-(7-(3-cyano-5-fluoro-4-(tetrahydro-2H-pyran-4-ylamino)phenyl)furo[3,2-b]pyridin-2-yl)-3-methoxy-N,N-dimethylbenzamide], for which the IC50 at TBK1 and on IKKε was below 100 nM in each case.
